Some results are limits rather than exact numbers.

The subject of the test is U2OS_Bim cells. The test can be described thus: Apoptosis inhibition assay (Bim-induced apoptosis, cell viability by ATP level). In kind it is cell-based. The conditions noted are these: U2OS_Bim cells; means of duplicates; numbering of Tables 4a/4b; read-out: EC50. On the procedure: A chemical library containing 200000 compounds was screened according to the following procedure: U2OS_Bim cells (a cell line in which the BH3-only protein Bim can be inducibly expressed by the addition of Doxycycline to the growth medium)^[2] were plated in 384-well plates with 30 μl medium at a density of 500 cells per well. 16 hrs after plating, test compounds were transferred from stock plates to the assay plates with the cultured cells. Positive control (20 μM zVAD) and negative control (DMSO) were added to every plate. 1 hr after compound treatment, 0.1 ug/mL Doxycyclin (DOX) was added to induce the expression of the Bim protein. After 24 hrs, cell viability was determined by measuring the ATP levels using a Cell Titer-Glo kit (Promega, G7570) according to the manufacturer's instructions. Luminescence was recorded with a PerkinElmer EnSpire Multimode Plate Reader. Compounds that could rescue cell viability to a level above 50% were selected; these compounds were then screened a second time for assurance.
U2OS_Bim or U2OS_tBid cells were plated at a density of 3000 cells per well in 96-well plates. 24 hrs later, cells were treated with experimental compounds, zVAD (positive control) and DMSO (Negative control) for one hour. The cells were then treated with 0.1 μg/mL DOX to trigger apoptosis. 24 hours after the addition of DOX, cell viability was determined by measuring the ATP levels using a Cell Titer-Glo kit. Cell survival rate was calculated.
U2OS_Bim cells (a U2OS stable cell line transfected with a Bim transgene) were cultured in DMEM culture medium (Gibico). On day one, U2OS_Bim cells were plated in 96-well plates at a density of 3000 cells per well. On day two, cells were pretreated with compounds for one hour. Then cells were treated with 0.1 μg/mL doxycycline (DOX) to trigger apoptosis. 24 hours after DOX treatment, cell viability was determined by measuring the ATP levels using the Cell Titer-Glo kit (G7570, Promega), according to the manufacturer's instructions. Luminescence was recorded with a PerkinElmer EnSpire Multimode Plate Reader. Survived cells were normalized to those cells treated with DMSO. zVAD (20 μM) was used as a positive control. Activity data for compounds […] are represented as means f standard deviation of duplicates; activity data for compounds 187-274 are estimated based on preliminary results.
As for `CS(=O)(=O)c1nc(-c2cccs2)cc(-n2cccn2)n1` [Compound 36, 2-(methylsulfonyl)-4-(1H-pyrazol-1-yl)-6-(thiophen-2-yl)pyrimidine], the EC50 is 1 to 10 µM.
To `CS(=O)(=O)c1nc(-c2cccs2)cc(-c2cccs2)n1` [Compound 37, 2-(methylsulfonyl)-4,6-di(thiophen-2-yl)pyrimidine] belongs 1 to 10 µM; to `CS(=O)(=O)c1nc(-c2cccs2)cc(N2CCCC2=O)n1` [Compound 38, 1-(2-(methylsulfonyl)-6-(thiophen-2-yl)pyrimidin-4-yl)pyrrolidin-2-one], < 100 µM; to `CS(=O)(=O)c1nc(-c2cccs2)cc(-n2ccccc2=O)n1` [Compound 39, 1-(2-(methylsulfonyl)-6-(thiophen-2-yl)pyrimidin-4-yl)pyridine-2 (1H)-one], < 100 µM.
In the case of `CS(=O)(=O)c1nc(-c2cccs2)cc(N2CCOCC2)n1` [Compound 40, 4-(2-(methylsulfonyl)-6-(thiophen-2-yl)pyrimidin-4-yl)morpholine], the half-maximal effective concentration (EC50) was < 100 µM.
To `CS(=O)(=O)c1nc(N=[N+]=[N-])cc(-c2cccs2)n1` [Compound 41, 4-azido-2-(methylsulfonyl)-6-(thiophen-2-yl)pyrimidine] belongs < 100 µM; to `CN(C)c1cc(-c2cccs2)nc([S+](C)[O-])n1` (centres unmarked) [Compound 42, N,N-dimethyl-2-(methylsulfinyl)-6-(thiophen-2-yl)pyrimidin-4-amine], < 100 µM; to `CS(=O)(=O)c1nc(-c2ccccc2F)cc(C(F)(F)F)n1` [Compound 43, 4-(2-fluorophenyl)-2-(methylsulfonyl)-6-(trifluoromethyl)pyrimidine], 1 to 20 µM.
To `CS(=O)(=O)c1nc(-c2cccc(F)c2)cc(C(F)(F)F)n1` [Compound 44, 4-(3-fluorophenyl)-2-(methylsulfonyl)-6-(trifluoromethyl)pyrimidine] belongs 1 to 10 µM.
Take `CS(=O)(=O)c1nc(-c2ccc(F)cc2)cc(C(F)(F)F)n1` [Compound 45, 4-(4-fluorophenyl)-2-(methylsulfonyl)-6-(trifluoromethyl)pyrimidine]: the EC50 lay within 1 to 10 µM.
To `Cc1ccccc1-c1cc(C(F)(F)F)nc(S(C)(=O)=O)n1` [Compound 46, 2-(methylsulfonyl)-4-(o-tolyl)-6-(trifluoromethyl)pyrimidine] belongs 1 to 20 µM; to `Cc1cccc(-c2cc(C(F)(F)F)nc(S(C)(=O)=O)n2)c1` [Compound 47, 2-(methylsulfonyl)-4-(m-tolyl)-6-(trifluoromethyl)pyrimidine], 1 to 10 µM; to `Cc1ccc(-c2cc(C(F)(F)F)nc(S(C)(=O)=O)n2)cc1` [Compound 48, 2-(methylsulfonyl)-4-(p-tolyl)-6-(trifluoromethyl)pyrimidine], < 100 µM.
Take `C#Cc1ccc(-c2cc(C(F)(F)F)nc(S(C)(=O)=O)n2)cc1` [Compound 49, 4-(4-ethynylphenyl)-2-(methylsulfonyl)-6-(trifluoromethyl)pyrimidine]: the 50% effective concentration (EC50) was < 100 µM.
To `CS(=O)(=O)c1nc(-c2cccc(O)c2)cc(C(F)(F)F)n1` [Compound 50, 3-(2-(methylsulfonyl)-6-(trifluoromethyl)pyrimidin-4-yl)phenol] belongs < 100 µM.
Under `COc1ccccc1-c1cc(C(F)(F)F)nc(S(C)(=O)=O)n1` [Compound 51, 4-(2-methoxyphenyl)-2-(methylsulfonyl)-6-(trifluoromethyl)pyrimidine] stands 1 to 10 µM; under `COc1cccc(-c2cc(C(F)(F)F)nc(S(C)(=O)=O)n2)c1` [Compound 52], < 100 µM.
In the case of `COc1ccc(-c2cc(C(F)(F)F)nc(S(C)(=O)=O)n2)cc1` [Compound 53, 4-(4-methoxyphenyl)-2-(methylsulfonyl)-6-(trifluoromethyl)pyrimidine], the concentration for a half-maximal effect (EC50) was < 100 µM.
Under `COc1ccc(-c2cc(C(F)(F)F)nc([S+](C)[O-])n2)cc1` (centres unmarked) [Compound 54, 4-(4-methoxyphenyl)-2-(methylsulfinyl)-6-(trifluoromethyl)pyrimidine] stands 1 to 20 µM; under `CS(=O)(=O)c1nc(-c2ccccc2C#N)cc(C(F)(F)F)n1` [Compound 55, 2-(2-(methylsulfonyl)-6-(trifluoromethyl)pyrimidin-4-yl)benzonitrile], 1 to 20 µM; under `CS(=O)(=O)c1nc(-c2cccc(C#N)c2)cc(C(F)(F)F)n1` [Compound 56, 3-(2-(methylsulfonyl)-6-(trifluoromethyl)pyrimidin-4-yl)benzonitrile], 1 to 20 µM.
To `CS(=O)(=O)c1nc(-c2ccc(C#N)cc2)cc(C(F)(F)F)n1` [Compound 57] belongs < 100 µM; to `COC(=O)c1ccccc1-c1cc(C(F)(F)F)nc(S(C)(=O)=O)n1` [Compound 58, methyl 2-(2-(methylsulfonyl)-6-(trifluoromethyl)pyrimidin-4-yl)benzoate], < 100 µM.
To `COC(=O)c1ccccc1-c1cc(C(F)(F)F)nc([S+](C)[O-])n1` (centres unmarked) [Compound 59, methyl 2-(2-(methylsulfinyl)-6-(trifluoromethyl)pyrimidin-4-yl)benzoate] belongs 1 to 10 µM; to `COC(=O)c1cccc(-c2cc(C(F)(F)F)nc(S(C)(=O)=O)n2)c1` [Compound 60, methyl 3-(2-(methylsulfonyl)-6-(trifluoromethyl)pyrimidin-4-yl)benzoate], < 100 µM; to `COC(=O)c1ccc(-c2cc(C(F)(F)F)nc(S(C)(=O)=O)n2)cc1` [Compound 61, methyl 4-(2-(methylsulfonyl)-6-(trifluoromethyl)pyrimidin-4-yl)benzoate], < 100 µM.
Regarding `COC(=O)c1ccc(-c2cc(C(F)(F)F)nc([S+](C)[O-])n2)cc1` (centres unmarked) [Compound 62, methyl 4-(2-(methylsulfinyl)-6-(trifluoromethyl)pyrimidin-4-yl)benzoate], the concentration for a half-maximal effect (EC50) is < 100 µM.
To `CS(=O)(=O)c1nc(-c2ccccc2C(=O)O)cc(C(F)(F)F)n1` [Compound 63, 2-(2-(methylsulfonyl)-6-(trifluoromethyl)pyrimidin-4-yl)benzoic acid] belongs < 100 µM.
With `CS(=O)(=O)c1nc(-c2ccc(C(=O)O)cc2)cc(C(F)(F)F)n1` [Compound 64, 4-(2-(methylsulfonyl)-6-(trifluoromethyl)pyrimidin-4-yl)benzoic acid], the EC50 is < 100 µM.
With `C[S+]([O-])c1nc(-c2ccc(C(=O)O)cc2)cc(C(F)(F)F)n1` (centres unmarked) [Compound 65, 4-(2-(methylsulfinyl)-6-(trifluoromethyl)pyrimidin-4-yl)benzoic acid], the EC50 is < 100 µM.
Under `CS(=O)(=O)c1nc(-c2cccc(C(N)=O)c2)cc(C(F)(F)F)n1` [Compound 66, 3-(2-(methylsulfonyl)-6-(trifluoromethyl)pyrimidin-4-yl)benzamide] stands 1 to 10 µM.
Under `CNC(=O)c1ccccc1-c1cc(C(F)(F)F)nc(S(C)(=O)=O)n1` [Compound 67, N-methyl-2-(2-(methylsulfonyl)-6-(trifluoromethyl)pyrimidin-4-yl)benzamide] stands < 100 µM; under `CNC(=O)c1ccc(-c2cc(C(F)(F)F)nc(S(C)(=O)=O)n2)cc1` [Compound 68, N-methyl-4-(2-(methylsulfonyl)-6-(trifluoromethyl)pyrimidin-4-yl)benzamide], 1 to 20 µM.
To `CN(C)C(=O)c1cccc(-c2cc(C(F)(F)F)nc(S(C)(=O)=O)n2)c1` [Compound 69, N,N-dimethyl-3-(2-(methylsulfonyl)-6-(trifluoromethyl)pyrimidin-4-yl)benzamide] belongs 1 to 10 µM; to `CS(=O)(=O)c1nc(-c2cccc(Cn3ccccc3=O)c2)cc(C(F)(F)F)n1` [Compound 70, 1-(3-(2-(methylsulfonyl)-6-(trifluoromethyl)pyrimidin-4-yl)benzyl) pyridin-2 (1H)-one], 1 to 10 µM.
For `C#CCOc1cccc(-c2cc(C(F)(F)F)nc(S(C)(=O)=O)n2)c1` [Compound 71, 2-(methylsulfonyl)-4-(3-(prop-2-yn-1-yloxy)phenyl)-6-(trifluoromethyl) pyrimidine], the EC50 is < 100 µM.
Take `C#CCOc1cccc(-c2cc(C(F)(F)F)nc([S+](C)[O-])n2)c1` (centres unmarked) [Compound 72, 2-(methylsulfinyl)-4-(3-(prop-2-yn-1-yloxy)phenyl)-6-(trifluoromethyl) pyrimidine]: the concentration giving a half-maximal response (EC50) was in the range of 1 to 10 µM.
For `CS(=O)(=O)c1nc(-c2cccc(Oc3ccccc3)c2)cc(C(F)(F)F)n1` [Compound 73, 2-(methylsulfonyl)-4-(3-phenoxyphenyl)-6-(trifluoromethyl)pyrimidine], the EC50 lay in the range of 1 to 10 µM.

What is called EC50 is the midpoint of the concentration-response curve.

The values are drawn from patent publication US11725000B2, “Apoptosis inhibitors” (National Institute of Biological Sciences, Beijing, priority 2017, dated 2023).
